Consider twelve compounds from US20100056596A1, “RESISTANCE-REPELLENT RETROVIRAL PROTEASE INHIBITORS” (Sequoia Pharmaceuticals, priority 2004, published 2010).

For orientation: Ki means a dissociation constant, usually derived from enzyme kinetics or from competition with a known ligand. A higher Ki goes with a looser hold on the target. For orientation: IC50 means the midpoint of a concentration-inhibition curve.

Assay [1] deals with HIV-1 protease Mutant 8 (Human immunodeficiency virus type 1, UniProt P04585). Put plainly: Ki against HIV-1 protease Mutant 8. The assay is classed as biochemical. Conditions: Mutant 8.
Assay [2] has as its system HIV-1 isolates, Mutant 9. Put plainly: In vitro drug sensitivity of HIV-1 laboratory isolates, Mutant 9. The assay is classed as cell-based. As to the method:
(§1) In Vitro Drug Sensitivity of HIV-1 Laboratory Isolates to PIs
(§2) The sensitivities of HIV-1 isolates against compounds of the invention were determined as previously described with minor modifications (Shiraska et al., Proc. Natl. Acad. Sci. USA, 92, 2398-2402 (1995)).

In assay [3] the test system is HIV-1 isolates, Mutant 8. Nature of the assay: In vitro drug sensitivity of HIV-1 laboratory isolates, Mutant 8. The assay is classed as cell-based. As to the method:
as §1, §2

The target of assay [4] is HIV-1 protease Mutant 9 (Human immunodeficiency virus type 1, UniProt P04585). Put plainly: Ki against HIV-1 protease Mutant 9. The class given is biochemical. Conditions: Mutant 9.
The test system of assay [5] is HIV-1 isolates, WT. Nature of the assay: In vitro drug sensitivity of HIV-1 laboratory isolates, WT. The assay is classed as cell-based. As to the method: as §1, §2
Assay [6] has as its target T1, wild type HIV-1 protease (Human immunodeficiency virus type 1 group M subtype B, UniProt P04585).
T1 construct: over 45 of the 99 amino acids of the HIV protease monomer
Put plainly: Ki against wild type (WT) HIV-1 protease. The assay is classed as biochemical. The following applies: WT.

The mark [7] stands for this setting: Mutant 9, read-out: IC50 Mutant 9.
Where [8] appears, read: Mutant 8, read-out: IC50 Mutant 8.
The mark [9] stands for this setting: Human immunodeficiency virus 1, read-out: IC50 Mutant 9.
[10] abbreviates: Human immunodeficiency virus 1, read-out: IC50 Mutant 8.

Each structure is given as a SMILES string. Read-outs that look alike come from different tables or passages of the source. Some results are limits rather than exact numbers.

On to `CC(C)CN(C[C@@H](O)[C@H](Cc1ccccc1)NC(=O)OC1COC2OCCC12)S(=O)(=O)c1ccc2occ(CNCC(=O)OC(C)(C)C)c2c1` (stereo partly drawn) [Compound 110], for which the figures for the Ki in assay [1], in assay [4] and in assay [6] were less than 0.3 nM, 0.32 nM and less than 0.1 nM, respectively. The figures for the IC50 in assay [2] (setting [7]), in assay [3] (setting [8]) and in assay [5] (WT) were 62 nM, 33 nM and 3.4 nM, respectively.
On to `CCCC[S+]([O-])Cc1coc2ccc(S(=O)(=O)N(CC(C)C)C[C@@H](O)[C@H](Cc3ccccc3)NC(=O)OC3COC4OCCC34)cc12` (stereo partly drawn) [Compound 111], for which the inhibitory constant (Ki) in assay [1] was less than 0.3 nM; in assay [4], 0.16 nM; in assay [6] it was less than 0.1 nM. The figures for the IC50 in assay [2] (setting [9]), in assay [3] (setting [10]) and in assay [5] (Human immunodeficiency virus 1) were 49 nM, 24 nM and 8 nM, respectively.
For the compound `CCOC(=O)NCc1coc2ccc(S(=O)(=O)N(CC(C)C)C[C@@H](O)[C@H](Cc3ccccc3)NC(=O)OC3COC4OCCC34)cc12` (stereo partly drawn) [Compound 112], the Ki in assay [1] was less than 0.3 nM; in assay [4], less than 0.1 nM; in assay [6], less than 0.1 nM. Further, the values for the IC50 in assay [2] (setting [7]), in assay [3] (setting [8]) and in assay [5] (WT) were 29 nM, 11 nM and 1.8 nM, respectively.
Regarding `CCC(=O)NCc1coc2ccc(S(=O)(=O)N(CC(C)C)C[C@@H](O)[C@H](Cc3ccccc3)NC(=O)OC3COC4OCCC34)cc12` (stereo partly drawn) [Compound 113], the figures for the inhibition constant (Ki) in assay [1], in assay [4] and in assay [6] were less than 0.3 nM, less than 0.1 nM and less than 0.1 nM, respectively. The IC50 worked out at 50 nM in assay [2] (setting [7]), 20 nM in assay [3] (setting [8]) and 7 nM in assay [5] (WT).
Turning to `CC(C)CN(CC(O)C(Cc1ccccc1)NC(=O)OC1COC2OCCC12)S(=O)(=O)c1ccc2occ(CNC(=O)c3ccccc3)c2c1` (stereo not drawn) [Compound 114, (3-{[3-(Benzoylamino-methyl)-benzofuran-5-sulfonyl]-isobutyl-amino}-1-benzyl-2-hydroxy-propyl)-carbamic acid hexahydro-furo[2,3-b]furan-3-yl ester], the Ki in assay [1] was less than 0.3 nM; in assay [4], less than 0.1 nM; in assay [6] it was 0.1 nM. Also, the IC50 in assay [2] (setting [9]) was found to be 30 nM; in assay [3] (setting [10]), 23 nM; in assay [5] (Human immunodeficiency virus 1) it was 4 nM.
With `CC(C)CN(CC(O)C(Cc1ccccc1)NC(=O)OC1COC2OCCC12)S(=O)(=O)c1ccc2occ(CNS(=O)(=O)C(C)C)c2c1` (stereo not drawn) [Compound 115], the inhibitory constant (Ki) is less than 0.3 nM in assay [1], 0.27 nM in assay [4] and less than 0.1 nM in assay [6]. For the same compound, the values for the IC50 in assay [2] (setting [9]), in assay [3] (setting [10]) and in assay [5] (Human immunodeficiency virus 1) were 64 nM, 18 nM and 6 nM, respectively.
On to `CC(C)CN(C[C@@H](O)[C@H](Cc1ccccc1)NC(=O)OC1COC2OCCC12)S(=O)(=O)c1ccc2occ(CNC(=O)CNC(=O)OCc3ccccc3)c2c1` (stereo partly drawn) [Compound 116], for which the Ki in assay [1] was less than 0.3 nM; in assay [4], 0.41 nM; in assay [6] it was less than 0.1 nM. Also, the concentration for half-maximal inhibition (IC50) in assay [2] (setting [7]) was determined as 58 nM; in assay [3] (setting [8]), 50 nM; in assay [5] (WT), 15 nM.
In the case of `CC(C)CN(C[C@@H](O)[C@H](Cc1ccccc1)NC(=O)OC1COC2OCCC12)S(=O)(=O)c1ccc2occ(CNCCc3ccccn3)c2c1` (stereo partly drawn) [Compound 117], the Ki is less than 0.3 nM in assay [1], less than 0.1 nM in assay [4] and less than 0.1 nM in assay [6]. The results for the IC50 in assay [2] (setting [7]), in assay [3] (setting [8]) and in assay [5] (WT) were 49 nM, 27 nM and 7 nM, respectively.
For the compound `CC(C)CN(C[C@@H](O)[C@H](Cc1ccccc1)NC(=O)OC1COC2OCCC12)S(=O)(=O)c1ccc2occ(CNC(=O)c3cccnc3)c2c1` (stereo partly drawn) [Compound 118], the results for the Ki in assay [1], in assay [4] and in assay [6] were less than 0.3 nM, 0.12 nM and less than 0.1 nM, respectively. The concentration for half-maximal inhibition (IC50) in assay [2] (setting [7]) was 39 nM; in assay [3] (setting [8]), 35 nM; in assay [5] (WT) it was 30 nM.
`CC(C)CN(C[C@@H](O)[C@H](Cc1ccccc1)NC(=O)OC1COC2OCCC12)S(=O)(=O)c1ccc2occ(CNC(=O)CSCc3ccccc3)c2c1` (stereo partly drawn) [Compound 119]: the Ki is less than 0.3 nM in assay [1], 0.95 nM in assay [4] and 0.12 nM in assay [6]. The results for the IC50 in assay [2] (setting [7]), in assay [3] (setting [8]) and in assay [5] (WT) were 170 nM, 42 nM and 5 nM, respectively.
As to `CC(C)CN(CC(O)C(Cc1ccccc1)NC(=O)OC1COC2OCCC12)S(=O)(=O)c1ccc2occ(CNC(=O)C[S+]([O-])Cc3ccccc3)c2c1` (stereo not drawn) [Compound 120], the Ki in assay [1] was less than 0.3 nM; in assay [4], 0.22 nM; in assay [6], less than 0.1 nM. The half-maximal inhibitory concentration (IC50) in assay [2] (setting [9]) turned out to be 150 nM; in assay [3] (setting [10]), 31 nM; in assay [5] (Human immunodeficiency virus 1), 20 nM.
Take `CCOC(=O)NCc1cc2cc(S(=O)(=O)N(CC(C)C)CC(O)C(Cc3ccccc3)NC(=O)OC3COC4OCCC34)ccc2o1` (stereo not drawn) [Compound 121]: the Ki in assay [1] was less than 0.3 nM; in assay [4] it was 1.6 nM; in assay [6], less than 0.1 nM. Moreover, the half-inhibitory concentration (IC50) in assay [2] (setting [9]) is more than 400 nM; in assay [3] (setting [10]), 21 nM; in assay [5] (Human immunodeficiency virus 1) it was 8 nM.
